Values quoted from earlier work in US9278994B2, “Short antimicrobial lipopeptides” (Helix BioMedix Inc., priority 2012, dated 2016).

Columns and labels:
[1] = system: S. aureus and C. albicans; details: Cutuli et al. 2000, no MIC determined; cited from earlier work
[2] = system: C. albicans strain SC5314; details: Rauch et al. 2009; cited from earlier work

For lysine-proline-valine [KPV], the “antimicrobial activity in phosphate buffer” value [1] is listed as “antimicrobial activity” and the “concentration up to which yeast growth was not inhibited” value [2] is listed as over 100 µM.
